# Laboratory results published in patent US20230022117A1, “RNAi-BASED TARGETING COMPOUNDS AND USES THEREOF TO PREVENT ACQUIRED HEARING LOSS” (MUSC FOUNDATION FOR RESEARCH DEVELOPMENT, priority 2019, published 2023).
# Columns and labels:
# Assay type in all cases: in vivo, mouse
# [1] = Body weight and survival with CDDP treatment
# Description: There is no difference in auditory threshold shifts between CDDP 2.5-4 mg/kg with 55-60 dB shifts when measured on day 7 and on day 14 post treatment. […] This model was used to test the effect of AMPKα siRNA.
# Body weight was measured before treatment, on treatment days, and 7 and 14 d post treatment. […] Data are presented as means±SD. CDDP2 mg/kg: n=2, CDDP 2.5 mg/kg: n=5, CDDP 3 mg/kg: n=2, CDDP 4 mg/kg: n=3.
# CBA/J mice [2] = assay: Cisplatin-plus-furosemide-induced hearing loss: ABR threshold shifts; conditions: CDDP 2.5-4 mg/kg plus furosemide 200 mg/kg IP; measured on day 7 and on day 14 post treatment
# CBA/J mice [3] = assay: Kanamycin-plus-furosemide-induced hearing loss: ABR threshold shifts; conditions: 8, 16, and 32 kHz; for hearing loss / auditory threshold shifts (in words): single treatment, KM 800 mg/kg SQ and/or Fu 200 mg/kg IP, 14 d after the injections; for KM-furosemide-induced auditory threshold shifts: 14 d after the injection
# IHC synapses = assay: Noise-induced loss of IHC synapses: CtBP2/GluA2 counts; conditions: pretreatment via intra-tympanic delivery onto the RWM; 101-dB noise; 14 d; loss at 22 and 32 kHz
# Description: Unrestrained CBA/J male mice at the age of 12 weeks (one mouse per stainless steel wire cage, approximately 9 cm^3) were exposed to broad band noise from to 2-20 kHz at 101 dB sound pressure level (SPL) for 2 h to induce permanent threshold shifts with loss of synaptic ribbons and OHCs, but not IHCs, or 106 dB to induce permanent threshold shifts with losses of ribbons, OHCs, and IHCs by 14 d after the noise exposure. […] Audio CD sound files were created and equalized with audio editing software (Audition 3; Adobe Systems, Inc.). The background sound intensity of the environment surrounding the cages was 65 dB as measured with a sound level meter (model 1200; Quest Technologies). Sound levels for noise exposure are calibrated with a sound level meter at multiple locations within the sound chamber to ensure the uniformity of the sound field before and after exposure. […]
# A procedure as previously described by Hill et al., 2016 was followed. Immunofluorescence of CtBP2 on surface preparations was quantified from original confocal images, each taken with a 63×-magnification lens under identical Z-stack conditions in […] intervals and equal parameter settings for laser gains and PMT gains. […] The number of synaptic ribbons was counted using ImageJ software (National Institutes of Health, Bethesda, Md.). […]
# [4] = tested on: OHC mechanotransduction channels; assay: FM1-43 uptake into OHCs (mechanotransduction channel function); conditions: siRNA delivered through the PSC 48 h before application of FM1-43
# Description: (§1) Since aminoglycoside antibiotics are known to enter outer hair cells (OHCs) mainly through mechanotransduction channels (MTCs), to address if protective effects of pretreatment with siCaMKKβ is due to blockade of kanamycin and/or furosemide entering OHCs, we assessed OHC MTCs using FM1-43FX, based on prior literature (Meyers et al., 2003; Taylor et al., 2008; Nakanishi et al., 2018). siCaMKKβ was delivered through the posterior semicircular canal (PSC) 48 h before application of FM1-43 to measure MTC function in OHCs. […] Scale bar=10 μm.
# as §1, with “with siAMPKα1” for “with siCaMKKβ”, “2018). siAMPKα” for “2018). siCaMKKβ”
# CaMKKβ = assay: Silencing efficiency: CaMKKβ immunolabeling in OHCs after siRNA delivery; conditions: basal turn, 22-32 kHz
# From the text: (§2) siCaMKKβ (Thermo Fisher, #n437808) (sense: […] SEQ ID NO: 1; antisense […] SEQ ID NO: 2) or siControl (Thermo Fisher, #4390844) was locally delivered via intra-tympanic application onto the RWM as previously described (Oishi et al., 2013; Hill et al., 2016) or via PSC to the endolymph based on reports (Guo, 2018 #3975; Tao, 2018 #3973). Briefly, after anesthesia, a retroauricular incision was made to approach the temporal bone. For intra-tympanic delivery onto the RWM, the otic bulla was identified ventral to the facial nerve and a shallow hole was made in the thin part of the otic bulla with a 30-G needle and enlarged with forceps to a diameter of 2 mm in order to visualize the round window. […]
# Immunohistochemistry is well accepted as a semi-quantitative methodology when used with careful consideration of the utility and semi-quantitative nature of these assays (Taylor, 2006 #3978; Walker, 2006 #3979). The specificity of antibodies must be first detected by Western blot analysis. Antibodies showing only a single band with the correct molecular weight were used for immunolabeling on surface preparations and quantification of signaling in OHCs. […] The grayscale value was determined in only the hair cells to quantify the change in fluorescence intensity. This procedure provided quantitative measurements that are not confounded by protein expression in other cell types of the cochlea. […]
# CBA/J mice [5] = assay: Noise-induced hearing loss (101-dB noise): DPOAE thresholds; conditions: pretreatment via intra-tympanic delivery on RWM; 12-40 kHz; 14 d after noise exposure
# CBA/J mice [6] = assay: Noise-induced hearing loss (101-dB broad band noise): ABR threshold shifts; conditions: pretreatment via intra-tympanic delivery on RWM; 8, 16, and 32 kHz; 14 d after noise exposure; vs siControl
# Description: (§3) Unrestrained CBA/J male mice at the age of 12 weeks (one mouse per stainless steel wire cage, approximately 9 cm^3) were exposed to broad band noise from to 2-20 kHz at 101 dB sound pressure level (SPL) for 2 h to induce permanent threshold shifts with loss of synaptic ribbons and OHCs, but not IHCs, or 106 dB to induce permanent threshold shifts with losses of ribbons, OHCs, and IHCs by 14 d after the noise exposure. […] Audio CD sound files were created and equalized with audio editing software (Audition 3; Adobe Systems, Inc.). The background sound intensity of the environment surrounding the cages was 65 dB as measured with a sound level meter (model 1200; Quest Technologies). Sound levels for noise exposure are calibrated with a sound level meter at multiple locations within the sound chamber to ensure the uniformity of the sound field before and after exposure. Control mice were kept in silence (without use of the loudspeaker) within the same chamber for 2 h. […]
# ABRs were measured in the left ears of anaesthetized mice before and two weeks after noise exposure. […] Body temperature was monitored and maintained near 37° C. with a heating pad. […] ABRs were measured at 8, 16, and 32 kHz. […] Thresholds were determined for each frequency by reducing the intensity in 10-dB increments and then in 5-dB steps near threshold until no organized responses were detected. […]
# outer hair cells (OHCs) [7] = assay: Kanamycin-furosemide-induced OHC loss: hair cell counts; conditions: siRNA pretreatment via PSC; 14 d after the lesions
# From the text: as §2, with “window. A customized sterile micro medical tube was inserted into the hole just above the round window niche (RWN) to slowly deliver 10 μL (0.6 μg) of siCaMKKβ or siControl. For PSC delivery, the stemocleidomastoid muscle was separated to expose the PSC. A small hole was made with the tip of a 30-G needle on the PSC and left open for about 1 min (there was no obvious endolymph leakage).” for “window.”
# Images from the apex through the base of the DAB-stained preparations were captured using a 20× lens on the Zeiss microscope. The lengths of the cochlear epithelia were measured and recorded in millimeters. OHCs were counted from the apex to the base along the entire length of the mouse cochlear epithelium. […]
# outer hair cells (OHCs) [8] = assay: Noise-induced OHC loss: hair cell counts along the cochlear duct; conditions: pretreatment via intra-tympanic delivery on RWM; 101-dB noise; 14 d after exposure
# Description: as §3
# Images from the apex through the base of the DAB-stained preparations were captured using a 20× lens on the Zeiss microscope. The lengths of the cochlear epithelia were measured and recorded in millimeters. OHCs were counted from the apex to the base along the entire length of the mouse cochlear epithelium.
# CBA/J mice [9] = assay: Kanamycin-furosemide-induced damage to OHC function: DPOAE; conditions: siRNA pretreatment via PSC; 14 d after the injection
compound,measurement,setting,value
"[NH2][Pt]([NH2])([Cl])[Cl] [CDDP, cisplatin]",death,"[1]; 3 mg/kg CDDP treated group, day 8 after the treatment",One mouse of the 3 mg/kg CDDP treated group died
same,changes in body weight,"[1]; CDDP at and above 3 mg/kg, day 7 post treatment vs beginning of the treatment",loss of body weight
same,changes in body weight,[1]; CDDP at doses below or equal 2.5 mg/kg,no significant changes
same,auditory threshold shifts,CBA/J mice [2],55-60 dB
"NC[C@H]1O[C@H](O[C@H]2[C@H](O)[C@@H](O[C@H]3O[C@H](CO)[C@@H](O)[C@H](N)[C@H]3O)[C@H](N)C[C@@H]2N)[C@H](O)[C@@H](O)[C@@H]1O [KM, kanamycin, reference compound]",hearing loss / auditory threshold shifts (in words),CBA/J mice [3],does not induce hearing loss
"NS(=O)(=O)c1cc(C(=O)O)c(NCc2ccco2)cc1Cl [furosemide, reference compound]",hearing loss / auditory threshold shifts (in words),CBA/J mice [3],does not induce hearing loss
"siCaMKKβ: CaMKKβ siRNA (Thermo Fisher, #n437808); sense GAGCACAAAUAAUUGUUUUTT SEQ ID NO: 1; antisense AAAACAAUUAUUUGUGCUCTA SEQ ID NO: 2 (chemistry not given here)",noise-induced loss of synapses (CtBP2/GluA2),IHC synapses,prevented
same,FM1-43 uptake into OHCs compared with siControl mice,[4],does not change
same,decrease of CaMKKβ immunolabeling in grayscale in OHCs compared to siControls,CaMKKβ; 72 h after PSC delivery,about 90%
same,decrease of CaMKKβ immunolabeling in grayscale in OHCs compared to siControls,CaMKKβ; 72 h after intra-tympanic delivery onto the RWM,about 40%
same,101-dB-noise-increased DPOAE thresholds,CBA/J mice [5],significantly attenuates
same,threshold shifts induced by exposure to 101-dB noise,CBA/J mice [6],significantly decreases
same,KM-furosemide-induced auditory threshold shifts,CBA/J mice [3]; siRNA pretreatment via PSC,completely prevented
same,KM-furosemide-induced auditory threshold shifts,CBA/J mice [3]; siRNA pretreatment via intra-tympanic delivery onto the RWM,significant reduction
same,KM-furosemide-induced OHC loss,outer hair cells (OHCs) [7],completely prevents
same,noise-induced OHC loss,outer hair cells (OHCs) [8],significantly reduced
same,KM-furosemide-induced reduction of DPOAE (damage to OHC function),CBA/J mice [9],completely prevented
